{"source": "ChEMBL document CHEMBL4715913", "about": "“Discovery of benzo[f]pyrido[4,3-b][1,4]oxazepin-10-one derivatives as orally available bromodomain and extra-terminal domain (BET) inhibitors with efficacy in an in vivo psoriatic animal model” (Bioorg Med Chem, 2021)", "key": {"[1]": {"molecular_target": "T1, Bromodomain-containing protein 4 (Homo sapiens, UniProt O60885)", "experiment": "Inhibition of BRD4-BD1 (unknown origin) by TR-FRET assay"}, "[2]": {"molecular_target": "T1, Bromodomain-containing protein 4", "experiment": "Inhibition of BRD4 in human PBMC assessed as reduction in LPS-induced TNFalpha secretion preincubated for 1 hr followed by LPS-stimulation and measured after 20 hrs by magnetic beads technique based assay"}, "[3]": {"molecular_target": "T2, Mitogen-activated protein kinase 7 (Homo sapiens, UniProt Q13164)", "T2 sequence (Q13164 whole entry)": "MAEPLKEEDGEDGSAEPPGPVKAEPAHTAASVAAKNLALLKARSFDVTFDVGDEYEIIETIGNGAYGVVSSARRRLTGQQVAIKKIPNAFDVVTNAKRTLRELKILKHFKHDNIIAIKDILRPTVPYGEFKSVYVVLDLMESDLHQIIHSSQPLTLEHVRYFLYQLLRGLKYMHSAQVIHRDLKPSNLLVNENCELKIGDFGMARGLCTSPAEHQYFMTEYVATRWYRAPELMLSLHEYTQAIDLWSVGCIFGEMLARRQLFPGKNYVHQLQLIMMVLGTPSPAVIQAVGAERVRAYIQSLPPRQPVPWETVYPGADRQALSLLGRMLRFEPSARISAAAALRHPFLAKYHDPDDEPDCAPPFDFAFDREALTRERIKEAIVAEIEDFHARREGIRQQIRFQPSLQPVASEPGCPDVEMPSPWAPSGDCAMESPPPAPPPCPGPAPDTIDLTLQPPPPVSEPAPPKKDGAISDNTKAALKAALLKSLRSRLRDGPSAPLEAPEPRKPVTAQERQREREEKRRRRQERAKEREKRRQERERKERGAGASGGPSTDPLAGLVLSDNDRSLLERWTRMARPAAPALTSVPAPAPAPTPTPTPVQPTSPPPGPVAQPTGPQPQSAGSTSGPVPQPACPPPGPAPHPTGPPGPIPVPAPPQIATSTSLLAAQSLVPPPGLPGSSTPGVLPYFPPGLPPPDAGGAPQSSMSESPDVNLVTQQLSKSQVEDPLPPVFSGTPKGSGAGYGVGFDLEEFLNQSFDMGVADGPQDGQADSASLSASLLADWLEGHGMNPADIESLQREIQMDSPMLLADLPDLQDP", "experiment": "Inhibition of recombinant human ERK5 using myelin basic protein as substrate by [gamm33P]ATP based HotSpot radiometric assay"}, "[4]": {"test_system": "PBMC", "experiment": "Inhibition of IL-6 production in LPS-induced human PBMC preincubated for 1 hr followed by LPS-stimulation and measured after 20 hrs by magnetic beads technique based assay", "type": "functional, tissue-based", "conditions": "time 21.0 hrs"}, "[5]": {"test_system": "PBMC", "experiment": "Inhibition of MCP-1 production in LPS-induced human PBMC preincubated for 1 hr followed by LPS-stimulation and measured after 20 hrs by magnetic beads technique based assay", "type": "functional, tissue-based", "conditions": "time 21.0 hrs"}, "[6]": {"experiment": "Stability of compound in human liver microsomes assessed as parent compound remaining after 1 hr"}, "[7]": {"molecular_target": "T3, Voltage-gated inwardly rectifying potassium channel KCNH2 (Homo sapiens, UniProt Q12809)", "T3 sequence (Q12809 whole entry)": "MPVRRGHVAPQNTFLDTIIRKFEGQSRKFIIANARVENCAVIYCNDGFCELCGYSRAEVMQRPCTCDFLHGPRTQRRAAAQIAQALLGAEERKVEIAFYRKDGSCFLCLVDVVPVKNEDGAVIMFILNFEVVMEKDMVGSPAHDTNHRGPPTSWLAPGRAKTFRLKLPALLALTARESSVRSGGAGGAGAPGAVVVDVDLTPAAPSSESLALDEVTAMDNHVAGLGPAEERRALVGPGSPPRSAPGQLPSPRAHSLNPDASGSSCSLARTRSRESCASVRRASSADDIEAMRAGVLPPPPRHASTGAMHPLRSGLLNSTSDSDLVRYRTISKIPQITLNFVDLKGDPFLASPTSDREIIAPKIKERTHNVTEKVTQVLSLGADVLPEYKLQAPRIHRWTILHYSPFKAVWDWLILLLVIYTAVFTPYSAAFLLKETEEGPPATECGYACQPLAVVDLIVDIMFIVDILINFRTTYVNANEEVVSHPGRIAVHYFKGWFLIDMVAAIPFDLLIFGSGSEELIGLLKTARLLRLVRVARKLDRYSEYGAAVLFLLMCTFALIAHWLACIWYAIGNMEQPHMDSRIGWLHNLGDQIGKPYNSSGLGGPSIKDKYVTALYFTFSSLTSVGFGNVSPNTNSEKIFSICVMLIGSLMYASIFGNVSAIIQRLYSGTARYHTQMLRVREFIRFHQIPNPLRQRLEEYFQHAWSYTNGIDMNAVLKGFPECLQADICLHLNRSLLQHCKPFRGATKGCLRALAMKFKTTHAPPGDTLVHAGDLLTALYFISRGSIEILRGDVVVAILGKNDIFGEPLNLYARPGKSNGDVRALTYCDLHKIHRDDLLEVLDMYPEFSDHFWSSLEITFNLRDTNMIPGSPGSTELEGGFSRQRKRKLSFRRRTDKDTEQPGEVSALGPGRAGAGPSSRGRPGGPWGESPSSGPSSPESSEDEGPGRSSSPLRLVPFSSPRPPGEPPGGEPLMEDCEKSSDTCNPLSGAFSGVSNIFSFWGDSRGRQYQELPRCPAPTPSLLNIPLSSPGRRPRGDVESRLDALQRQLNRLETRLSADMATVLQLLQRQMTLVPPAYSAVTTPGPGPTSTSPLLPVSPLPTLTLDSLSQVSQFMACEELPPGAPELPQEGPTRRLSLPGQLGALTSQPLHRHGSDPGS", "experiment": "Inhibition of human ERG stably expressed in CHO cells at holding potential of -80 mV incubated for 12 mins"}, "[8]": {"molecular_target": "T4, Bromodomain testis-specific protein (Homo sapiens, UniProt Q58F21)", "experiment": "Binding affinity to human partial length BRDT-BD1 (N21 to E137 residues) expressed in bacterial expression system by BROMOscan method"}, "[9]": {"molecular_target": "T4, Bromodomain testis-specific protein", "experiment": "Binding affinity to human partial length BRDT-BD2 (K250 to E382 residues) expressed in bacterial expression system by BROMOscan method"}, "[10]": {"molecular_target": "CREB-binding protein (Homo sapiens, UniProt Q92793)", "sequence (Q92793 whole entry, the tested form may be a part)": "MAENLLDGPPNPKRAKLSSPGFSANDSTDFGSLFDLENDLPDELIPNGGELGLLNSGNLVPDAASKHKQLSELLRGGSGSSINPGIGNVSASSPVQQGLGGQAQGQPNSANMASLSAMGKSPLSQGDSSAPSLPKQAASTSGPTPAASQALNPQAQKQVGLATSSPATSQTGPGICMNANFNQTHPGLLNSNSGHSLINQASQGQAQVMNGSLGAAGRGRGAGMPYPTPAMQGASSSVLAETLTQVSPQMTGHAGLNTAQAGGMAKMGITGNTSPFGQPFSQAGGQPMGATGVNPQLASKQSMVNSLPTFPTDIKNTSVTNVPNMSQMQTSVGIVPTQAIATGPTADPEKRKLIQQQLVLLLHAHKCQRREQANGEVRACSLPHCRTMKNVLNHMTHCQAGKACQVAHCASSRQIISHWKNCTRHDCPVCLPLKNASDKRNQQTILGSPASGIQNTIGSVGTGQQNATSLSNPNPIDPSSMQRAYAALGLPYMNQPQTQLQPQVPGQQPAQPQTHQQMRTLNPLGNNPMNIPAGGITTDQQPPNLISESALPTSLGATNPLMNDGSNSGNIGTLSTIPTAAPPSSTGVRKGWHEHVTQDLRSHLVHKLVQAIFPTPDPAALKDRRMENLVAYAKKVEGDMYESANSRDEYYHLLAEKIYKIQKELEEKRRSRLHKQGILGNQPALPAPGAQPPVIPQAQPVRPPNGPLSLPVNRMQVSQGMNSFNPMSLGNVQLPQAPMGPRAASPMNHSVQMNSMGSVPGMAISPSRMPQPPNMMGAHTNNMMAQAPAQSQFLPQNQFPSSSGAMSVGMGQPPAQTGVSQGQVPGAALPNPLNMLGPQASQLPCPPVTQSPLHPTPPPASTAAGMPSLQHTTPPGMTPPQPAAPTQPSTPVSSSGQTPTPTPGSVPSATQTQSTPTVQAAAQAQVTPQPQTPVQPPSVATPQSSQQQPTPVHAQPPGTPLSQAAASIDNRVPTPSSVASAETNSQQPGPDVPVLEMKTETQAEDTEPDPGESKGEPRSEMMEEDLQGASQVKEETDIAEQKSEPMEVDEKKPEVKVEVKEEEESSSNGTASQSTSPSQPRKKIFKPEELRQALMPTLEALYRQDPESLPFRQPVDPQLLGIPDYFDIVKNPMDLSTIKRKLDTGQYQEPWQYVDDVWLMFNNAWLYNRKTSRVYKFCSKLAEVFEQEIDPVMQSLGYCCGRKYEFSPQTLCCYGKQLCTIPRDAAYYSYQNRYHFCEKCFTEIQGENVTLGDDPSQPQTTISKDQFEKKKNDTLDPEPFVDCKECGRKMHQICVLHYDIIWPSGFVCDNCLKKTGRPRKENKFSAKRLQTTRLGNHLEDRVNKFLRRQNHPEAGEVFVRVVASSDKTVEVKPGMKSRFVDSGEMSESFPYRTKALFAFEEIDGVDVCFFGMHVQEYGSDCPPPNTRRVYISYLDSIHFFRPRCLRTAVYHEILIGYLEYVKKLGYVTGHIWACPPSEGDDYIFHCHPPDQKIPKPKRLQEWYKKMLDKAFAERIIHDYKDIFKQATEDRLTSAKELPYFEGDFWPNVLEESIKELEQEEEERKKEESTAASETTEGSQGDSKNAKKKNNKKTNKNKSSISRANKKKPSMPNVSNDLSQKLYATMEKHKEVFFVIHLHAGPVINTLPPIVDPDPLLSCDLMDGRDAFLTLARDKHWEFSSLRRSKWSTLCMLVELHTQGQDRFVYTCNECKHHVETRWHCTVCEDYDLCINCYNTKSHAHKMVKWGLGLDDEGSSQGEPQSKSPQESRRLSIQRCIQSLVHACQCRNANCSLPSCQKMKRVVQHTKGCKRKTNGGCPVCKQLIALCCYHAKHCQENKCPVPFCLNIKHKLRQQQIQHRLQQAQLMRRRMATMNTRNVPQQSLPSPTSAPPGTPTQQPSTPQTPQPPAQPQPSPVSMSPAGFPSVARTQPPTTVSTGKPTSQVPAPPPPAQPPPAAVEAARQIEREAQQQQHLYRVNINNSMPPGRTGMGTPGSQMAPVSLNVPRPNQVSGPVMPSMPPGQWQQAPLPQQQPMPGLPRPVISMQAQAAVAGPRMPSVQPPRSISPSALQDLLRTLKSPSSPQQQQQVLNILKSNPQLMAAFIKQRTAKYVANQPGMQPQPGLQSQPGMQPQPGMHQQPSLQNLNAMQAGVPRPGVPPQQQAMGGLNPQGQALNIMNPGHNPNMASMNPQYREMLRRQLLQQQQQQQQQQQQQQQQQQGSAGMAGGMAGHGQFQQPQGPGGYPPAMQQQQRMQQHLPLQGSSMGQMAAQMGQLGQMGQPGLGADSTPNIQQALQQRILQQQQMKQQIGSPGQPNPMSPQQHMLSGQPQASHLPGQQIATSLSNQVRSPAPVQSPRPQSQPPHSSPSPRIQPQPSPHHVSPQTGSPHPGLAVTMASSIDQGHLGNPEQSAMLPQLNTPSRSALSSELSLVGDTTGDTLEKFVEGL", "experiment": "Binding affinity to human partial length CREBBP (R1081 to G1197 residues) expressed in bacterial expression system by BROMOscan method"}, "[11]": {"molecular_target": "T1, Bromodomain-containing protein 4", "experiment": "Inhibition of BRD4-BD1 (unknown origin)"}, "[12]": {"molecular_target": "T1, Bromodomain-containing protein 4", "experiment": "Binding affinity to BRD4-BD1 (unknown origin)"}, "[13]": {"molecular_target": "T2, Mitogen-activated protein kinase 7", "experiment": "Inhibition of ERK5 (unknown origin)"}, "[14]": {"molecular_target": "T3, Voltage-gated inwardly rectifying potassium channel KCNH2", "experiment": "Inhibition of human ERG"}, "[15]": {"experiment": "Dissociation constant, pKa of compound", "type": "physicochemical"}}, "note": "The source made the active and inactive calls. The calls are words filed in the database; no cut-off is given here.", "data": [{"molecule": "CCO[C@H]1CC[C@H](Nc2cc3c(cn2)N(C)C(=O)c2ccccc2N3C)CC1", "values": [{"measurement": "IC50", "setting": "[1]", "value": 9.99, "unit": "µM"}, {"measurement": "EC50", "setting": "[2]", "value": 2.74, "unit": "µM"}, {"measurement": "IC50", "setting": "[3]", "value": 0.081, "unit": "µM"}, {"measurement": "inhibition", "setting": "[4]", "value": "Active"}, {"measurement": "inhibition", "setting": "[5]", "value": "Active"}]}, {"molecule": "CN1C(=O)c2ccccc2Oc2cc(N[C@H]3CC[C@H](O)CC3)ncc21", "values": [{"measurement": "IC50", "setting": "[1]", "value": 9.37, "unit": "µM"}, {"measurement": "EC50", "setting": "[2]", "value": 2.7, "unit": "µM"}, {"measurement": "IC50", "setting": "[3]", "value": 0.266, "unit": "µM"}, {"measurement": "remaining at 1 h", "setting": "[6]", "value": 97, "unit": "%"}, {"measurement": "IC50", "setting": "[7]", "value": "> 10", "unit": "µM"}, {"measurement": "inhibition", "setting": "[4]", "value": "Active"}, {"measurement": "inhibition", "setting": "[5]", "value": "Active"}]}, {"molecule": "CN1C(=O)c2ccccc2N(C)c2cc(N[C@H]3CC[C@@H](O)CC3)ncc21", "values": [{"measurement": "IC50", "setting": "[1]", "value": 6.91, "unit": "µM"}, {"measurement": "EC50", "setting": "[2]", "value": 3.07, "unit": "µM"}, {"measurement": "IC50", "setting": "[3]", "value": 2.23, "unit": "µM"}, {"measurement": "inhibition", "setting": "[4]", "value": "Active"}, {"measurement": "inhibition", "setting": "[5]", "value": "Active"}]}, {"molecule": "CCNC(=O)C[C@@H]1N=C(c2ccc(Cl)cc2)c2cc(OC)ccc2-n2c(C)nnc21", "note": "[MOLIBRESIB]", "values": [{"measurement": "Kd", "setting": "[8]", "value": 0.112, "unit": "µM"}, {"measurement": "Kd", "setting": "[9]", "value": 0.06, "unit": "µM"}, {"measurement": "Kd", "setting": "[10]", "value": 83, "unit": "µM"}, {"measurement": "inhibition", "setting": "[4]", "value": "Active"}, {"measurement": "inhibition", "setting": "[5]", "value": "Active"}]}, {"molecule": "CCOc1cc(C(=O)N2CCC(N3CCCC3)CC2)ccc1Nc1cc2c(cn1)N(C)C(=O)c1ccccc1N2C", "values": [{"measurement": "IC50", "setting": "[11]", "value": 1.29, "unit": "µM"}, {"measurement": "Kd", "setting": "[12]", "value": 0.022, "unit": "µM"}, {"measurement": "IC50", "setting": "[13]", "value": 0.011, "unit": "µM"}, {"measurement": "IC50", "setting": "[14]", "value": 0.32, "unit": "µM"}, {"measurement": "pKa", "setting": "[15]", "value": 9.7}, {"measurement": "inhibition", "setting": "[4]", "value": "Active"}, {"measurement": "inhibition", "setting": "[5]", "value": "Active"}]}, {"molecule": "CN1C(=O)c2cccc(Cl)c2Oc2cc(N[C@H]3CC[C@H](O)CC3)ncc21", "values": [{"measurement": "IC50", "setting": "[1]", "value": 12.8, "unit": "µM"}, {"measurement": "EC50", "setting": "[2]", "value": 1.17, "unit": "µM"}, {"measurement": "IC50", "setting": "[3]", "value": 1.05, "unit": "µM"}, {"measurement": "remaining at 1 h", "setting": "[6]", "value": 103, "unit": "%"}, {"measurement": "IC50", "setting": "[7]", "value": "> 10", "unit": "µM"}, {"measurement": "inhibition", "setting": "[4]", "value": "Active"}, {"measurement": "inhibition", "setting": "[5]", "value": "Active"}]}, {"molecule": "CN1C(=O)c2c(F)ccc(F)c2Oc2cc(N[C@H]3CC[C@H](O)CC3)ncc21", "values": [{"measurement": "IC50", "setting": "[1]", "value": 2.01, "unit": "µM"}, {"measurement": "EC50", "setting": "[2]", "value": 0.43, "unit": "µM"}, {"measurement": "IC50", "setting": "[3]", "value": 0.213, "unit": "µM"}, {"measurement": "remaining at 1 h", "setting": "[6]", "value": 90, "unit": "%"}, {"measurement": "IC50", "setting": "[7]", "value": "> 10", "unit": "µM"}, {"measurement": "inhibition", "setting": "[4]", "value": "Active"}, {"measurement": "inhibition", "setting": "[5]", "value": "Active"}]}, {"molecule": "CCO[C@@H]1CCCC[C@@H]1Nc1cc2c(cn1)N(C)C(=O)c1ccccc1N2C", "note": "(relative stereo)", "values": [{"measurement": "IC50", "setting": "[1]", "value": 15.4, "unit": "µM"}, {"measurement": "EC50", "setting": "[2]", "value": 2.95, "unit": "µM"}, {"measurement": "IC50", "setting": "[3]", "value": "> 10", "unit": "µM"}, {"measurement": "inhibition", "setting": "[4]", "value": "Active"}, {"measurement": "inhibition", "setting": "[5]", "value": "Active"}]}]}
